Source: patent publication US10471024B2, “Increased effectiveness of allylamine drug compounds for topical treatment of fungal infections of the skin and skin appendages” (BIOPHILE CORPORATION, LTD., priority 2007, dated 2019)
Where a name gives a salt, the structure may show the parent alone.

Tests used:
[1] = zeta potential of terbinafine hydrochloride solution; assay type: physicochemical; settings: 0.02 g/ml solution
Source text: Prototype measurements of zeta potential of the 0.02 g/ml terbinafine hydrochloride solution and the result is positive at pH of below 5.11. However, there are other anions in the solution, e.g., chloride ion and hydroxide ion (sodium hydroxide was used to adjust the solution pH) that make negative values of zeta potential. [table]

[2] = 0.5% in methanol/water (4:6), 25 degrees Celsius; cited from earlier work
[3] = theoretical fraction of positively charged terbinafine from pKa; assay type: physicochemical
Source text: The positive charge can be determined by examining the pKa of the active ingredient. […] At pH<pKa, the positively charged terbinafine is more than 50%. When pH>pKa the positively charged terbinafine is less than 50%.

Zeta Potential ([1]; pH 3.68)	Zeta Potential ([1]; pH 5.11)	Zeta Potential ([1]; pH 7.07 (adjusted with sodium hydroxide)) [mV]	Zeta Potential ([1]; pH 8.73 (adjusted with sodium hydroxide)) [mV]	positively charged terbinafine ([3]; pH 5.10)	positively charged terbinafine molecules ([3]; pH 7.10) [%]	positively charged terbinafine ([3]; pH 9.10)	SMILES	pH of a solution [2]
+12.1 mV	+31.2 mV	−34.0	−58.8	–	–	–	CN(C/C=C/C#CC(C)(C)C)Cc1cccc2ccccc12 [Terbinafine hydrochloride]	approximately 4.7
–	–	–	–	about 99%	50	about 1%	CN(C/C=C/C#CC(C)(C)C)Cc1cccc2ccccc12 [Terbinafine]	–
